Reference: patent publication US8759520B2, “Compounds for treating cancer” (Boehringer Ingelheim International GmbH, priority 2008, dated 2014)

Molecular target: Bcl-2 (Homo sapiens, UniProt P10415)
Assay: Homogeneous HTS assay for inhibitors of the Bcl-2 : Bak (72-87) BH3 domain interaction, fluorescence polarisation (2D-FIDA)
Format: binding
Settings: fluorescence polarisation, fluorescent labelled Bak BH3 domain derived peptide; read-out: IC50 [μM] Bcl-2
Text: FIG. 1 is a schematic drawing of the Bcl-2: Bak (72-87) interaction assay based on fluorescence polarisation.
The homogeneous HTS assay for inhibitors of the Bcl-2 is shown schematically in FIG. 1. BH3 domain interaction is based on fluorescence polarisation. The inherent rotational diffusion of the Bak BH3 domain derived fluorescent labelled peptide decreases upon binding to Bc1-2. This shift in rotational diffusion is quantitated using the two-dimensional fluorescence intensity distribution analysis (2D-FIDA; Kask et al. 2000, Biophys. J. 78: 1703-1713).
Two different BH3 domain derived peptide ligands were synthesised and subsequently fluorescently labelled: • a 16mer peptide covering amino acids 72-87 of the Bak protein; this peptide had been used by Wang and co-workers and Holinger and coworkers in their Bcl-2 protein binding studies; Wang and co-workers reported an equilibrium binding constant KD of ˜0.2 μM to Bcl-2 protein; • peptide sequence: GQVGRQLAIIGDDINR—N (Wang et al. 2002, Proc. Natl. Acad. Sci. U.S.A. 97: 7124-7129; Holinger et al. 1999, J. Biol. Chem. 274: 13298-13304).

Sequence of Bcl-2 (P10415 whole entry, species assumed, the tested form may be a part): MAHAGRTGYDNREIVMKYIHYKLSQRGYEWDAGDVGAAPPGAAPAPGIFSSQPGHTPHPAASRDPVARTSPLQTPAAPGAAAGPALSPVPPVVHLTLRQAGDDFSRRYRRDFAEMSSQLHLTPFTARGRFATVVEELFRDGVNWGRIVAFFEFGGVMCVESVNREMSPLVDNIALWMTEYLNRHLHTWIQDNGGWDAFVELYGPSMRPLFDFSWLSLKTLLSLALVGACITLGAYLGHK

Row | IC50 | SMILES
1 | < 10 µM | N=c1n(CCCOc2ccc(F)cc2)c2ccccc2n1Cc1ccc(N2CCN(Cc3cccc(Cl)c3)CC2)cc1 [Compound 21, 1-{4-[4-(3-Chloro-benzyl)-piperazin-1-yl]-benzyl}-3-[3-(4-fluoro-phenoxy)-propyl]-1,3-dihydro-benzoimidazol-2-ylideneamine]
2 | < 10 µM | N=c1n(CCCOc2ccc(F)cc2)c2ccccc2n1Cc1ccc(N2CCN(Cc3ccccc3-c3ccc(Cl)cc3)CC2)cc1 [Compound 24, 1-{4-[4-(4′-Chloro-biphenyl-2-ylmethyl)-piperazin-1-yl]-benzyl}-3-[3-(4-fluoro-phenoxy)-propyl]-1,3-dihydro-benzoimidazol-2-ylideneamine]
3 | 11 to 100 µM | N=c1n(CCCOc2ccc(F)cc2)c2ccccc2n1Cc1ccc(CN2CCN(c3ccc(Cl)cc3)CC2)cc1 [Compound 42, 1-{4-[4-(4-Chloro-phenyl)-piperazin-1-ylmethyl]-benzyl}-3-[3-(4-fluoro-phenoxy)-propyl]-1,3-dihydro-benzoimidazol-2-ylideneamine]
4 | 11 to 100 µM | N=c1n(CCCOc2ccc(F)cc2)c2ccccc2n1Cc1ccc(CN2CCN(Cc3ccccc3Cl)CC2)cc1 [Compound 48, 1-{4-[4-(2-Chloro-benzyl)-piperazin-1-ylmethyl]-benzyl}-3-[3-(4-fluoro-phenoxy)-propyl]-1,3-dihydro-benzoimidazol-2-ylideneamine]
5 | < 10 µM | N=c1n(CCCOc2ccccc2)c2ccccc2n1Cc1ccc(N2CCN(Cc3ccccc3-c3ccc(Cl)cc3)CC2)cc1 [Compound 30, 1-{4-[4-(4′-Chloro-biphenyl-2-ylmethyl)-piperazin-1-yl]-benzyl}-3-(3-phenoxy-propyl)-1,3-dihydro-benzoimidazol-2-ylideneamine]
6 | 11 to 100 µM | N=c1n(CCCOc2ccc(F)cc2)c2ccccc2n1Cc1ccccc1 [Compound 97, 1-Benzyl-3-[3-(4-fluoro-phenoxy)-propyl]-1,3-dihydro-benzoimidazol-2-ylideneamine]
7 | 11 to 100 µM | N=c1n(CCCOc2ccc(F)cc2)c2ccccc2n1Cc1ccc(N2CCN(Cc3ccc(Cl)cc3)CC2)cc1 [Compound 19, 1-{4-[4-(4-Chloro-benzyl)-piperazin-1-yl]-benzyl}-3-[3-(4-fluoro-phenoxy)-propyl]-1,3-dihydro-benzoimidazol-2-ylideneamine]
8 | 11 to 100 µM | N=c1n(CCCOc2ccc(F)cc2)c2ccccc2n1Cc1ccc(N2CCN(Cc3cccc(Cl)c3)CC2)nc1 [Compound 54, 1-{6-[4-(3-Chloro-benzyl)-piperazin-1-yl]-pyridin-3-ylmethyl}-3-[3-(4-fluoro-phenoxy)-propyl]-1,3-dihydro-benzoimidazol-2-ylideneamine]
9 | < 10 µM | N=c1n(CCCOc2ccc(F)cc2)c2ccccc2n1Cc1ccc(CN2CCN(Cc3cccc(Cl)c3)CC2)cc1 [Compound 47, 1-{4-[4-(3-Chloro-benzyl)-piperazin-1-ylmethyl]-benzyl}-3-[3-(4-fluoro-phenoxy)-propyl]-1,3-dihydro-benzoimidazol-2-ylideneamine]
10 | 11 to 100 µM | N=c1n(Cc2ccccc2)c2ccccc2n1CC(O)COc1ccc(Cl)cc1 (stereo not drawn) [Compound 80, 1-(3-Benzyl-2-imino-2,3-dihydro-benzoimidazol-1-yl)-3-(4-chloro-phenoxy)-propan-2-ol]
11 | 11 to 100 µM | N=c1n(CCCOc2ccc(F)cc2)c2ccccc2n1Cc1ccc(Cl)c(Cl)c1 [Compound 11, 1-(3,4-Dichloro-benzyl)-3-[3-(4-fluoro-phenoxy)-propyl]-1,3-dihydro-benzoimidazol-2-ylideneamine]
12 | 11 to 100 µM | N=c1n(CCCOc2ccc(Br)cc2)c2ccccc2n1Cc1ccccc1 [Compound 87, 1-Benzyl-3-[3-(4-bromo-phenoxy)-propyl]-1,3-dihydro-benzoimidazol-2-ylideneamine]
13 | 11 to 100 µM | N=c1n(CCCOc2cccc(C(=O)O)c2)c2ccccc2n1Cc1ccc(Br)cc1 [Compound 85, 3-{3-[3-(4-Bromo-benzyl)-2-imino-2,3-dihydro-benzoimidazol-1-yl]-propoxy}-benzoic acid]
14 | 11 to 100 µM | N=c1n(CCCOc2ccc(F)cc2)c2ccc(F)cc2n1Cc1ccc(N2CCN(Cc3ccccc3-c3ccccc3)CC2)cc1 [Compound 63, 3-[4-(4-Biphenyl-2-ylmethyl-piperazin-1-yl)-benzyl]-5-fluoro-1-[3-(4-fluoro-phenoxy)-propyl]-1,3-dihydro-benzoimidazol-2-ylideneamine]
15 | < 10 µM | Cc1ccc2c(c1)n(Cc1ccc(N3CCN(Cc4ccccc4-c4ccccc4)CC3)cc1)c(=N)n2CCCOc1ccc(F)cc1 [Compound 62, 3-[4-(4-Biphenyl-2-ylmethyl-piperazin-1-yl)-benzyl]-1-[3-(4-fluoro-phenoxy)-propyl]-5-methyl-1,3-dihydro-benzoimidazol-2-ylideneamine]
16 | 11 to 100 µM | COc1ccccc1OCC(O)Cn1c(=N)n(Cc2ccccc2)c2ccccc21 (stereo not drawn) [Compound 89, 1-(3-Benzyl-2-imino-2,3-dihydro-benzoimidazol-1-yl)-3-(2-methoxy-phenoxy)-propan-2-ol]
17 | 11 to 100 µM | N=c1n(Cc2ccc(Cl)cc2)c2ccccc2n1CC(O)COc1ccccc1 (stereo not drawn) [Compound 103, 1-[3-(4-Chloro-benzyl)-2-imino-2,3-dihydro-benzoimidazol-1-yl]-3-phenoxy-propan-2-ol]

Row | IC50 | SMILES
18 | 11 to 100 µM | N=c1n(Cc2ccccc2)c2ccccc2n1Cc1ccccn1 [Compound 1, 1-Benzyl-3-pyridin-2-ylmethyl-1,3-dihydro-benzoimidazol-2-ylideneamine]
19 | 11 to 100 µM | CCOC(=O)c1cccc(OCCCn2c(=N)n(Cc3cccc(Br)c3)c3ccccc32)c1 [Compound 68, 3-{3-[3-(3-Bromo-benzyl)-2-imino-2,3-dihydro-benzoimidazol-1-yl]-propoxy}-benzoic acid ethyl ester]
20 | < 10 µM | N=c1n(CCCOc2ccc(F)cc2)c2ccccc2n1Cc1ccc(Br)cc1 [Compound 5, 1-(4-Bromo-benzyl)-3-[3-(4-fluoro-phenoxy)-propyl]-1,3-dihydro-benzoimidazol-2-ylideneamine]
21 | 11 to 100 µM | CCOC(=O)c1cccc(OCCCn2c(=N)n(Cc3ccc(Br)cc3)c3ccccc32)c1 [Compound 65, 3-{3-[3-(4-Bromo-benzyl)-2-imino-2,3-dihydro-benzoimidazol-1-yl]-propoxy}-benzoic acid ethyl ester]
22 | 11 to 100 µM | N=c1n(CCCOc2ccc(F)cc2)c2ccccc2n1Cc1cccc(C(=O)O)c1 [Compound 72, 3-{3-[3-(4-Fluoro-phenoxy)-propyl]-2-imino-2,3-dihydro-benzoimidazol-1-ylmethyl}-benzoic acid]
23 | 11 to 100 µM | N=c1n(CCCOc2ccc(F)cc2)c2cc(C(F)(F)F)ccc2n1Cc1ccc(Br)cc1 [Compound 60, 1-(4-Bromo-benzyl)-3-[3-(4-fluoro-phenoxy)-propyl]-5-trifluoromethyl-1,3-dihydro-benzoimidazol-2-ylideneamine]
24 | < 10 µM | N=c1n(CCCOc2ccccc2)c2ccccc2n1Cc1ccc(N2CCN(Cc3ccccc3-c3ccccc3)CC2)cc1 [Compound 28, 1-[4-(4-Biphenyl-2-ylmethyl-piperazin-1-yl)-benzyl]-3-(3-phenoxy-propyl)-1,3-dihydro-benzoimidazol-2-ylideneamine]
25 | 11 to 100 µM | Cn1c(=N)n(Cc2ccc(N3CCN(Cc4ccccc4-c4ccccc4)CC3)cc2)c2ccccc21 [Compound 17, 1-[4-(4-Biphenyl-2-ylmethyl-piperazin-1-yl)-benzyl]-3-methyl-1,3-dihydro-benzoimidazol-2-ylideneamine]
26 | > 100 µM | N=c1n(Cc2ccccc2)c2ccccc2n1CC(O)c1ccccc1 (stereo not drawn) [Compound 92, 2-(3-Benzyl-2-imino-2,3-dihydro-benzoimidazol-1-yl)-1-phenyl-ethanol]
27 | 11 to 100 µM | N=c1n(CCCOc2ccc(F)cc2)c2ccccc2n1Cc1ccc(CNCC(=O)Nc2ccccc2)cc1 [Compound 51, 2-(4-{3-[3-(4-Fluoro-phenoxy)-propyl]-2-imino-2,3-dihydro-benzoimidazol-1-ylmethyl}-benzylamino)-N-phenyl-acetamide]
28 | < 10 µM | N=c1n(CCCOc2ccc(F)cc2)c2ccccc2n1Cc1ccc(N2CCN(Cc3ccccc3)CC2)cc1 [Compound 22, 1-[4-(4-Benzyl-piperazin-1-yl)-benzyl]-3-[3-(4-fluoro-phenoxy)-propyl]-1,3-dihydro-benzoimidazol-2-ylideneamine]
29 | 11 to 100 µM | CCCCCCn1c(=N)n(CC(O)COc2ccccc2OC)c2ccccc21 (stereo not drawn) [Compound 101, 1-(3-Hexyl-2-imino-2,3-dihydro-benzoimidazol-1-yl)-3-(2-methoxy-phenoxy)-propan-2-ol]
30 | 11 to 100 µM | N=c1n(CCCOc2ccc(F)cc2)c2ccc(F)cc2n1Cc1ccc(Br)cc1 [Compound 59, 3-(4-Bromo-benzyl)-5-fluoro-1-[3-(4-fluoro-phenoxy)-propyl]-1,3-dihydro-benzoimidazol-2-ylideneamine]
31 | 11 to 100 µM | N=c1n(CCCOc2ccc(F)cc2)c2cc(F)ccc2n1Cc1ccc(Br)cc1 [Compound 61, 1-(4-Bromo-benzyl)-5-fluoro-3-[3-(4-fluoro-phenoxy)-propyl]-1,3-dihydro-benzoimidazol-2-ylideneamine]
32 | > 100 µM | N=c1n(Cc2ccccc2)c2ccccc2n1Cc1cccnc1 [Compound 2, 1-Benzyl-3-pyridin-3-ylmethyl-1,3-dihydro-benzoimidazol-2-ylideneamine]
33 | 11 to 100 µM | Cc1ccccc1OCC(O)Cn1c(=N)n(Cc2ccccc2)c2ccccc21 (stereo not drawn) [Compound 79, 1-(3-Benzyl-2-imino-2,3-dihydro-benzoimidazol-1-yl)-3-o-tolyloxy-propan-2-ol]
